Measured values taken from ChEMBL document CHEMBL1149334, “Structure of a new cyclic nonapeptide, segetalin F, and vasorelaxant activity of segetalins from Vaccaria segetalis” (Bioorg Med Chem Lett, 2006).
The source made the active and inactive calls. The rule behind the calls is not given here. Residues, ends and D or L forms follow the SMILES beside them.

Columns and labels:
Type in all cases: functional, organism-based
Settings in all cases: Aorta
Rattus norvegicus [1] = species on record: Rattus norvegicus; experiment: Vasorelaxation effect against norepinephrine-induced contraction of rat thoracic aortic ring with endothelium at 100 uM
Rattus norvegicus [2] = species on record: Rattus norvegicus; experiment: Vasorelaxation effect against norepinephrine-induced contraction of rat thoracic aortic ring without endothelium at 100 uM
Rattus norvegicus [3] = species on record: Rattus norvegicus; experiment: Vasocontractile effect on norepinephrine-induced contraction of rat thoracic aortic ring without endothelium at 100 uM
Rattus norvegicus [4] = species on record: Rattus norvegicus; experiment: Vasocontractile effect on norepinephrine-induced contraction of rat thoracic aortic ring with endothelium at 100 uM

CC(C)C[C@@H]1NC(=O)CNC(=O)[C@@H]2CCCN2C(=O)[C@H](Cc2ccccc2)NC(=O)[C@H](C)NC(=O)[C@H](Cc2ccccc2)NC(=O)[C@H](CO)NC1=O (cyclo(AFPGLSF))
Activity (Rattus norvegicus [1]): Active | Activity (Rattus norvegicus [2]): Active

C[C@@H]1NC(=O)[C@H](CO)NC(=O)[C@H](Cc2ccccc2)NC(=O)[C@@H]2CCCN2C(=O)[C@H](CCCCN)NC(=O)[C@H](CO)NC(=O)[C@H](CO)NC(=O)[C@H](Cc2ccc(O)cc2)NC(=O)[C@H](CO)NC1=O (cyclo(ASYSSKPFS))
Activity (Rattus norvegicus [1]): Active | Activity (Rattus norvegicus [2]): Active

CC(C)[C@@H]1NC(=O)[C@@H]2CCCN2C(=O)[C@H](C(C)C)NC(=O)CNC(=O)[C@H](C)NC(=O)[C@H](Cc2c[nH]c3ccccc23)NC1=O (cyclo(AGVPVW))
Activity (Rattus norvegicus [1]): Active | Activity (Rattus norvegicus [2]): Active

CC(C)[C@@H]1NC(=O)CNC(=O)[C@H](C)NC(=O)[C@H](Cc2ccc(O)cc2)NC(=O)[C@H](CCCCN)NC1=O (cyclo(AGVKY))
Activity (Rattus norvegicus [1]): Active | Activity (Rattus norvegicus [2]): Active

N=C(N)NCCC[C@@H]1NC(=O)[C@H](Cc2ccc(O)cc2)NC(=O)CNC(=O)[C@H](CO)NC(=O)[C@H](Cc2ccccc2)NC1=O (cyclo(FSGYR))
Activity (Rattus norvegicus [1]): Active | Activity (Rattus norvegicus [2]): Active

CC(C)C[C@@H]1NC(=O)CNC(=O)[C@@H]2CCCN2C(=O)[C@H](Cc2ccccc2)NC(=O)[C@H](C)NC(=O)[C@H](Cc2ccccc2)NC(=O)[C@H](Cc2c[nH]cn2)NC1=O (cyclo(AFPGLHF))
Activity (Rattus norvegicus [1]): Active | Activity (Rattus norvegicus [2]): Active

CC(C)[C@@H]1NC(=O)CNC(=O)[C@H](C)NC(=O)[C@H](Cc2c[nH]c3ccccc23)NC(=O)[C@H](C)NC1=O (cyclo(AGVAW))
Activity (Rattus norvegicus [3]): Active | Activity (Rattus norvegicus [1]): Active | Activity (Rattus norvegicus [4]): Active
